Assay results taken from PubChem BioAssay (NCI).
Where “and” joins values, the source holds several entries; their conditions need not be identical. Equal entries are not always repeated.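 96-well plates; 48 h exposure; 5 concentrations. Endpoints by linear interpolation between flanking doses. Not reached: highest tested concentration assigned. The concentration for 50% growth inhibition is given as GI50. TGI: concentration producing complete growth inhibition.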

Assays:
Assay in all cases: NCI-60 cell line screen, 48 h
CCRF-CEM leukemia = tested on: CCRF-CEM leukemia
DU-145 prostate = tested on: DU-145 prostate
EKVX NSCLC = tested on: EKVX NSCLC
HCT-15 colon = tested on: HCT-15 colon
MDA-MB-231 breast = tested on: MDA-MB-231 breast
RXF 393 renal = tested on: RXF 393 renal
SF-539 CNS = tested on: SF-539 CNS
SK-MEL-28 melanoma = tested on: SK-MEL-28 melanoma
SNB-19 CNS = tested on: SNB-19 CNS
UACC-257 melanoma = tested on: UACC-257 melanoma

Compound | TGI (CCRF-CEM leukemia) | TGI (DU-145 prostate) [µM] | TGI (EKVX NSCLC) [µM] | TGI (HCT-15 colon) | TGI (MDA-MB-231 breast) [µM] | TGI (RXF 393 renal) | TGI (SF-539 CNS) | TGI (SK-MEL-28 melanoma) | TGI (SNB-19 CNS) [µM] | TGI (UACC-257 melanoma) [µM] | GI50 (CCRF-CEM leukemia) [µM] | GI50 (HCT-15 colon) [µM] | GI50 (RXF 393 renal) [µM] | GI50 (SF-539 CNS) | GI50 (SK-MEL-28 melanoma) [µM] | GI50 (DU-145 prostate) [µM] | GI50 (EKVX NSCLC) [µM] | GI50 (MDA-MB-231 breast) [µM] | GI50 (SNB-19 CNS) [µM] | GI50 (UACC-257 melanoma) [µM]
O=C1c2cc([N+](=O)[O-])cc3cc([N+](=O)[O-])cc(c23)C(=O)N1CCCNCCNCCCN1C(=O)c2cc([N+](=O)[O-])cc3cc([N+](=O)[O-])cc(c23)C1=O | 6.46 µM | 19.4 | 10 | > 30.6 µM | 3.45 | 0.375 µM | 1.26 µM | 2.11 µM | > 23.3 | 2.52 | – | – | – | – | – | – | – | – | – | –
OCC1OC(n2cnc3c2NC=NC[C@H]3O)CC1O (some centres undefined) | 492 µM and > 588 µM | 500 | 500 | 500 µM and > 588 µM | > 500 | 500 µM and > 588 µM | 461 µM and > 588 µM | 500 µM and > 588 µM | 500 | 468 | > 588 | > 588 | > 588 | 405 µM and > 588 µM | > 588 | – | – | – | – | –
COc1ccc(OC)c(/C=C2\COc3ccc(O)c(O)c3C2=O)c1 | 34.4 µM | 7.28 | 12.2 | 6.5 µM | 11.8 | 3.58 µM | 5.19 µM | 7.51 µM | 11.1 | 7.82 | 0.679 | 1.3 | 1.83 | 2.23 µM | 2.65 | 2.27 | 3.26 | 2.74 | 3.09 | 2.43
NC1=CC(=O)c2nc3ccccc3c3ccnc1c23 | > 100 µM | > 44.6 | 29.4 | > 100 µM | > 70.1 | 17.2 µM | 57.1 µM | 32 µM | > 93.2 | 20 | 11.6 | 0.622 | 4.78 | 3.99 µM | 11.8 | 0.495 | 9.14 | 16.9 | 3.06 | 2.37
COc1cc(C2CC(c3ccccc3)=NN2C(C)=O)cc(OC)c1OC (centres undefined) | > 100 µM | 77.3 | > 100 | > 100 µM | > 100 | > 48.2 µM | 17.8 µM | > 100 µM | > 100 | > 100 | 3.09 | 2.48 | 4.14 | 3.06 µM | 6.48 | 5.26 | 6.41 | 7.68 | 5.63 | > 100
O=C(O)c1ccccc1-c1ccccc1C(=O)Nc1ccc2c(c1)[nH]c(=O)c1ccccc12 | > 100 µM | > 100 | > 100 | > 100 µM | > 100 | > 100 µM | > 100 µM | > 100 µM | > 100 | > 100 | – | – | – | – | – | – | – | – | – | –
O=C(CN1C(=O)S/C(=C\C(Cl)=C\c2ccccc2)C1=O)NCCc1ccc(O)cc1 | > 100 µM | 3.55 | 4.74 | 4.56 µM | 6.52 | 3.5 µM | 3.63 µM | 3.44 µM | 9.46 | 14.5 | 2.16 | 1.52 | 1.78 | 1.74 µM | 1.73 | 1.72 | 2.04 | 2.09 | 2.54 | 2.58
CC1OC(n2c3ccccc3c3c4c(c5c6ccccc6[nH]c5c32)C(=O)N(CCN2CCOCC2)C4=O)CC(O)C1O (centres undefined) | 18.1 µM | 7.85 | 17.7 | 13.5 µM | 18.9 | 10.6 µM | – | 13.8 µM | 17.8 | 14.5 | 2.1 | 2.34 | 2.82 | – | 5.61 | 2 | 6.14 | 6.63 | 2.18 | 6.11
CCCCCCCCCCCCCCCCCC(=O)OCC(COC1OC(CS(=O)(=O)O)C(O)C(O)C1O)OC(=O)CCCCCCCCCCCCCCCCC (centres undefined) | > 100 µM | > 100 | > 100 | > 100 µM | > 100 | > 100 µM | > 100 µM | > 100 µM | > 100 | > 100 | – | – | – | – | – | – | – | – | – | –
Cn1ccnc1C(=O)/C=C/c1ccc(CC(=O)Nc2ccc(F)cc2)cc1 | > 25 µM | 5.97 | > 25 | 9.26 µM | 12.8 | 7.97 µM | 7.12 µM | 9.95 µM | 7.02 | 21.6 | 2 | 1.29 | 3.89 | 3.59 µM | 4.47 | 1.24 | 5.5 | 2.96 | 2.74 | 6.99
CC(C)NC(=O)OCc1c(COC(=O)NC(C)C)c(-c2ccc(Cl)c(Cl)c2)n2c1CCC2 | 44.6 µM | > 100 | 69.6 | 71.3 µM | > 100 | 46.9 µM | 65.4 µM | 75.1 µM | 81 | 65.9 | – | – | – | – | – | – | – | – | – | –
N#Cc1cc(N(CCCl)CCCl)c([N+](=O)[O-])cc1[N+](=O)[O-] | 98.2 µM | > 100 | > 100 | > 100 µM | > 100 | – | > 100 µM | > 100 µM | > 100 | > 100 | – | – | – | – | – | – | – | – | – | –
Cc1[nH]nc2ccc3nc(-c4ccc5[nH]ncc5c4)c4c(c3c12)CCCC4 | > 100 µM | 12.2 | 25.7 | 12.6 µM | 12.7 | – | 8.44 µM | 9.54 µM | 12.1 | 6.63 | 2.13 | 0.638 | 0.23 | 1.62 µM | 2.09 | 1.05 | 2.95 | 1.71 | 2.62 | 1.68
CC(=O)OC1Oc2cc(C)c(C)cc2-c2oc(=O)c(-c3ccc(F)cc3)cc21 (centres undefined) | 21.4 µM | 77.7 | > 100 | 19.1 µM | 65 | 8.71 µM | > 100 µM | 45.7 µM | > 100 | 26 | 3.61 | 2.68 | 2.95 | 7.1 µM | 6.89 | 10.3 | 5.23 | 8.34 | 11.6 | 10.3
O=C1NC(c2c(Cl)cccc2Cl)Nc2ccccc21 (centres undefined) | – | > 100 | > 100 | > 100 µM | > 100 | > 100 µM | > 100 µM | > 100 µM | > 100 | > 100 | – | – | – | – | – | – | – | – | – | –
CC(C(=O)O)/C(=C\c1ccc2c(c1)OCO2)C(=O)O (centres undefined) | – | > 100 | > 100 | > 100 µM | > 100 | > 100 µM | > 100 µM | > 100 µM | > 100 | > 100 | – | – | – | – | – | – | – | – | – | –
CC(C)n1c(=O)n(C)c2cnc3cc(F)c(-c4ccc(OCCCN5CCCCC5)nc4)cc3c21 | 31.8 µM | > 100 | 48.9 | 31.5 µM | 27.6 | – | 22.9 µM | 32.4 µM | 77.5 | 36.8 | 9.9 | 11.1 | – | 8.38 µM | 13.5 | 17.7 | 8.19 | 11.4 | 17.4 | 16.4
C=C(C)[C@@H]1CC[C@]2(C(=O)O)CC[C@]3(C)[C@H](CC[C@@H]4[C@@]5(C)C/C(=C/c6ccc(OC)cc6)C(=O)C(C)(C)[C@@H]5CC[C@]43C)[C@@H]12 | – | 15.3 | 10.5 | 4.4 µM | 7.78 | 5.26 µM | 4.16 µM | 3.72 µM | 17 | 6.93 | – | 1.79 | 2.1 | 1.94 µM | 1.91 | 3.09 | 2.36 | 2.32 | 3.07 | 2.1
CS(=O)(=O)c1ccc(Oc2cc(F)cc(C#N)c2)c2c1[C@H](O)C(F)(F)C2 | 47.5 µM | > 100 | > 100 | > 100 µM | > 100 | > 100 µM | > 100 µM | > 100 µM | > 100 | – | 21.9 | > 100 | > 100 | > 100 µM | > 100 | > 100 | > 100 | > 100 | > 100 | –
CCC(c1ccc2cc(O)ccc2c1)C(C)(C)C(=O)O (centres undefined) | – | > 100 | > 100 | > 100 µM | > 100 | > 100 µM | > 100 µM | > 100 µM | > 100 | > 100 | – | – | – | – | – | – | – | – | – | –
COc1cc(-n2cnc(-c3ccc(Cl)cc3)c2)cc(OC)c1OC | 44.8 µM | > 100 | > 100 | 36.3 µM | > 100 | – | 34.4 µM | 29.7 µM | > 100 | 34.1 | 21.4 | 16.8 | – | 17.1 µM | 15.5 | > 100 | > 100 | 85.7 | > 100 | 18.3
N#CCCSC(=S)C1CCCC1=N (centres undefined) | – | > 100 | > 100 | > 100 µM | > 100 | > 100 µM | > 100 µM | > 100 µM | > 100 | > 100 | – | – | – | – | – | – | – | – | – | –
